Each structure is given as a SMILES string.

The term IC50 denotes the concentration at which inhibition is half-maximal. The low end stands for inhibition by little substance, the high end for a need for much substance.

One assay addresses T1, Mcl-1 (Mus musculus, UniProt P97287).
T1 construct: mouse Mcl-1 (Acc. no. NP_031588; residues 152-308); GST (N, cleaved yes); made in house
As to the kind of experiment: Solution competition assay (competition with immobilized wtBimBH3, biosensor). The format is binding. As to conditions: Mcl-1. As to the method: (§1) The relative affinities of BH3 peptides for pro-survival Bcl-2 proteins were assessed by comparing their abilities to compete with immobilized ^wtBimBH3 peptide for binding to Bcl-2-like proteins (Wilson-Annan et al., Supra). A fixed sub-saturating amount (10 nM) of a pro-survival Bcl-2 protein was incubated with varying amounts of competitor BH3 peptide in HBS for >2 hr on ice. The mixtures were then injected over a sensor chip containing a channel bearing mouse ^wtBimBH3 and a control channel with mouse ^4EBimBH3 immobilized. The baseline response (control channel) was subtracted to obtain the absolute binding response. Taking the response for the pro-survival protein alone as the maximal response (100%), the relative residual binding (%) in the presence of increasing amounts of competitor peptides at a given injection time point (430 s) was then calculated. […] Theoretically, IC50=[A]/2+KD, where [A] is the analyte concentration.
(§2) Some of recombinant proteins (Bcl-2, Bcl-xL, A1) studied contain cysteine residues but the behavior of Bcl-2 or Bcl-xL was not affected by dithiothreitol (DTT).
(§3) To assess if other BH3 peptides bind pro-survival proteins similarly, we directly compared their binding affinities in solution using a competitive binding assay. In such assays, the quality and absolute quantity of target proteins are less critical than in direct binding, and solution binding precludes the steric hindrance encountered with some immobilized peptides. FIG. 1C illustrates the approach: pre-incubation of Bcl-xL in solution with increasing amounts of BikBH3 reduced its binding to ^wtBimBH3 (FIG. 1D). From the attenuation in binding, the IC50 (competitor peptide concentration that halves binding) of BikBH3 can be calculated (FIG. 1E). As the IC50 values reflect relative binding affinities (see Experimental Procedures), we used this assay to compare the binding affinities of eight BH3 peptides (Table 3) to the five pro-survival proteins. […] Their binding properties fell into several classes (FIG. 2B and FIG. 4). […] Contrary to the prevailing view, the pro-survival proteins also had unique patterns for BH3 binding: Bcl-xL behaved like Bcl-w, with Bcl-2 more distinct, whereas Mcl-1 and A1 formed a separate group (FIG. 2B).

Assay [1] relates to pro-survival proteins (Bcl-2, Bcl-xL, Bcl-w, Mcl-1, A1). The assay is described as follows: Solution competition assay, statements spanning several pro-survival proteins. Particulars: Bcl-2, Bcl-xL, Bcl-w, Mcl-1, A1. In kind it is binding, human and mouse. As to the method:
as §1, §2, §3

The target of a further assay is T2, Bcl-xL ΔC24 (Homo sapiens, UniProt Q07817).
T2 construct: Human Bcl-xL (Acc. no. NP_612815; residues 1-209); GST (N, cleaved yes); made in house
As to the kind of experiment: Direct binding to immobilized BH3 peptide, Biacore biosensor. As to conditions: BadBH3 or NoxaBH3 immobilized chip. How it is done: (§4) Recombinant human Bcl-xL ΔC24, mouse Mcl-1 ΔN151 ΔC23 and mouse A1 ΔC20 were expressed as GST fusion proteins and cleaved off Glutathione Sepharose columns as described (Day et al., Cell Death Differ 6:1125-1132, 1999; Hinds et al., EMBO J 22:1497-1507, 2003).
(§5) Affinity measurements were performed at room temperature on a Biacore 3000 biosensor (Biacore) with HBS (10 mM HEPES pH 7.2, 150 mM NaCl, 3.4 mM EDTA, 0.005% Tween 20) as the running buffer. Mouse 26-mer ^wtBimBH3, ^4EBimBH3 mutant, BadBH3, NoxaBH3 or control irrelevant peptides were immobilized onto CM5 sensor chips using amine-coupling chemistry (Wilson-Annan et al., Supra). To assess the binding affinities of pro-survival Bcl-2-like proteins for BimBH3 directly, the proteins were directly injected into the sensor chip at 20 μl/min. Residual bound proteins were desorbed with 50 mM NaOH or 6 M GuHCl (pH 7.2), followed by two washes with running buffer. Binding kinetics were derived from sensorgrams, following subtraction of baseline responses, using BIA evaluation software (version 3, Biacore) (Wilson-Annan et al., Supra).
(§6) The binding constants of the pro-survival molecules for ^wtBimBH3, immobilized on sensor chip, were determined using biosensor experiments as described in Hinds et al., Supra; Wilson-Annan et al., Supra.
In general terms: In SPR one partner is held on a chip, and binding of the other changes the refractive index at the surface.

A further assay concerns the target T3, Mcl-1 ΔN151 ΔC23 (Mus musculus, UniProt P97287).
T3 construct: mouse Mcl-1 (Acc. no. NP_031588; residues 152-308); GST (N, cleaved yes); made in house
Described as above. Particulars: BadBH3 or NoxaBH3 immobilized chip. How it is done:
as §4, §5, §6

The target of a further assay is T4, Bcl-w ΔC29 (Homo sapiens, UniProt Q92843, A128E/C29S).
T4 construct: human Bcl-w (Acc. no. NP_004041; residues 1-164; C29S A128E); made in house
T4 sequence (Q92843 1-164 C29S/A128E): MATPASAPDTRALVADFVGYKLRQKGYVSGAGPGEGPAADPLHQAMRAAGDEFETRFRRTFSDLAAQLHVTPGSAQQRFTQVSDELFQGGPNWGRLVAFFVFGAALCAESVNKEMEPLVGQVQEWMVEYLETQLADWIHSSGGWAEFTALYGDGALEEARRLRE
Described as above. Particulars: BadBH3 or NoxaBH3 immobilized chip. As to the method:
as §4, §5, §6

The next assay concerns the target T5, Bcl-2 ΔC22 (Homo sapiens, UniProt P10415).
T5 construct: Human Bcl-2 (Acc. no. NP_000624; residues 1-217); made in house
The assay is described as above. As to conditions: BadBH3 or NoxaBH3 immobilized chip. How it is done:
as §4, §5, §6

In another assay the target is T6, A1 ΔC20 (Mus musculus, UniProt Q07440).
T6 construct: mouse A1 (Acc. no. NP_033872; residues 1-152); GST (N, cleaved yes); made in house
T6 sequence (Q07440 1-152): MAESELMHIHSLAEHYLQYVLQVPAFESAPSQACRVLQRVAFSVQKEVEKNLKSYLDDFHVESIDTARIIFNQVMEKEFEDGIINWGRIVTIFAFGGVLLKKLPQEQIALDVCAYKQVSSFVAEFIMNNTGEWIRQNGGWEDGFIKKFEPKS
Described as above. Particulars: BadBH3 or NoxaBH3 immobilized chip. How it is done: as §4, §5, §6

T5 sequence (P10415 1-217): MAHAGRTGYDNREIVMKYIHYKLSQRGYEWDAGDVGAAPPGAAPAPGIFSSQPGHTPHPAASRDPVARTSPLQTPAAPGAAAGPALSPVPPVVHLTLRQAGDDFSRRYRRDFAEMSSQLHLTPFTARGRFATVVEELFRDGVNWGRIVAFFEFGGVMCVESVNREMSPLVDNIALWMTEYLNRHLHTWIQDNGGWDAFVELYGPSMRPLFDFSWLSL
T3 sequence (P97287 152-308): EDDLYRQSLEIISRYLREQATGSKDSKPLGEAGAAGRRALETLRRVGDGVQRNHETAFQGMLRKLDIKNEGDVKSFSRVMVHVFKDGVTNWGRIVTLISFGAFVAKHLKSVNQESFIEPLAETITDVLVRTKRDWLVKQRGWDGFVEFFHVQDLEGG
T1 sequence (P97287 152-308): as above
T2 sequence (Q07817 1-209): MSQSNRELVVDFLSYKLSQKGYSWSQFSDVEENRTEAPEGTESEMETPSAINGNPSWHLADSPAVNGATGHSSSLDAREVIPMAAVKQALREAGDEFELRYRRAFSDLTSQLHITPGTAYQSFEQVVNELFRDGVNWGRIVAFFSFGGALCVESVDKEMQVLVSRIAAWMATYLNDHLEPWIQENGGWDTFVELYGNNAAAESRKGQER

For `CSCC[C@H](NC(=O)[C@H](CCCNC(=N)N)NC(=O)[C@H](CCCNC(=N)N)NC(=O)[C@H](CC(C)C)NC(=O)[C@H](CCC(=O)O)NC(=O)[C@H](CCCNC(=N)N)NC(=O)CNC(=O)[C@H](Cc1ccc(O)cc1)NC(=O)[C@H](CCCNC(=N)N)NC(=O)[C@H](CCC(N)=O)NC(=O)[C@H](C)NC(=O)[C@H](C)NC(=O)[C@H](Cc1c[nH]c2ccccc12)NC(=O)[C@H](CC(C)C)NC(=O)[C@@H](N)CC(N)=O)C(=O)N[C@@H](CO)C(=O)N[C@@H](CC(=O)O)C(=O)N[C@@H](CCC(=O)O)C(=O)N[C@@H](Cc1ccccc1)C(=O)N[C@H](C(=O)N[C@@H](CC(=O)O)C(=O)N[C@@H](CO)C(=O)N[C@@H](Cc1ccccc1)C(=O)N[C@@H](CCCCN)C(=O)N[C@@H](CCCCN)C(=O)NCC(=O)O)C(C)C` [BadBH3], the half-inhibitory concentration (IC50) at Mcl-1 was > 100 µM. Besides, the “binding preference among pro-survival proteins” value in assay [1] was “strongly preferred Bcl-2, BCl-xL and Bcl-w”. On Bcl-xL ΔC24, the “binding of Bcl-xL to immobilized peptide” value was “avidly”. Further, the “binding of Mcl-1 to immobilized peptide” value on Mcl-1 ΔN151 ΔC23 was “no affinity”. For the same molecule, the “binding of Bcl-w to immobilized peptide” value at Bcl-w ΔC29 is “avidly”. Moreover, the “binding of Bcl-2 to immobilized peptide” value at Bcl-2 ΔC22 was “avidly”. The “binding of A1 to immobilized peptide” value on A1 ΔC20 was “no affinity”.

The values are drawn from patent publication US20080027145A1, “Therapeutic Molecules and Methods for Generating and/or Selecting Same” (priority 2004, published 2008).
